# “And” between values parts separate entries of the source, which are not always exact repeats. Equal entries are not always repeated. Where two headings read alike, the source gives them in different places. Marks after values point to notes of the source that are not given here.
# How the values were obtained:
# THLE-2 cells = assay: THLE-2 cytotoxicity assay (ATP); conditions: Homo sapiens, THLE-2, 24 h, read-out: THLE IC50
# Method: In vitro cytotoxicity of select compounds was tested in a “normal” proliferating transformed human liver epithelial (THLE-2) cell line.[35] Compounds were incubated in THLE-2 cells for 24 and 72 h, and adenosine triphosphate (ATP) levels were used as an indicator of cell viability.
# THLE-2 Cytotoxicity Assay: THLE-2 cells (ATCC, catalog #CRL-2706) were plated in LHC-8 Media (Invitrogen, catalog #12679015) supplemented with fetal bovine serum (GE, catalog #SH30088.03), 70 ng/mL phosphoethanolamine (Sigma, catalog #P0503), 5 ng/mL EGF (Sigma, catalog #E9644), 1X penicillin/streptomycin (Gibco, catalog #15140148), and 1X glutamine (Invitrogen, catalog #25030024) in 384-well clear-bottom, black walled plates at a density of 3750 cells/well (15μL/well). After plating, cells were incubated overnight at 37°C in an incubator with 5% CO2 and 90% humidity. Compounds were first serially diluted in dimethyl sulfoxide then diluted in LHC-8 media growth media to 2X concentration. Cells were dosed with 15μL of each dose for final concentrations between 0.01 – 300 μM. Cells were incubated with compounds for 24 or 72 hours. Cytotoxicity was determined with Cell Titer Glo Luminescent ATP Assay (Promega, catalog #G7573) according to the manufacturer’s instructions. Tamoxifen (Sigma, catalog #BC9353476) was used as a positive control. levels at each dose were normalized to that of cells dosed with dimethyl sulfoxide vehicle alone and IC50 values were calculated from non-linear regression fits of dose-response curves plotted
# [1] = tested on: L. sigmodontis adult worms; design: method as in PMID 35834918; conditions: infected mice; cited from earlier work
# Mouse pharmacokinetics = type: in vivo; conditions: male CD-1 mouse, PO 30 mg/kg suspension
# Source text: All animal experiments were approved by the Institutional Animal Care and Use Committee (IACUC) of Bristol Myers Squibb.
# [2] = tested on: O. gutturosa adult male worms; assay: O. gutturosa adult worm ex vivo assay, MTT/formazan viability; type: cell-based, Onchocerca gutturosa; conditions: Onchocerca gutturosa, supplement; SD in brackets in the PDF table; read-out: O. gutturosa EC50 (uM) MTT viability inhibition
# In short: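 Adult male worms from naturally infected Gambian cattle were kept individually in MEM with 10% newborn calf serum at 37 °C, 5% CO2; four worms per concentration. Motility was scored 0-10 every 24 h to 120 h as a percentage of maximum, with ≥50% reduction versus untreated counted active. Afterwards, MTT (0.5 mg/mL, 30 min) formazan was read at 490 nm.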
# [3] = tested on: O. gutturosa adult male worms; assay: O. gutturosa adult worm ex vivo assay, motility; type: cell-based, Onchocerca gutturosa; conditions: Onchocerca gutturosa
# In short: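 Adult male O. gutturosa from naturally infected cattle were cultured in supplemented MEM at 37 °C, 5% CO2, with four worms per concentration in serial 1-in-4 dilutions. Motility (0–10 scale) was scored every 24 h to 120 h. EC50 (geomean, n=2) for motility reduction came from 4PL fits, and viability was checked by MTT at 120 h.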
# [4] = Liver S9 metabolic stability assay, rat; type: in vitro ADME; conditions: 3 μM, 60 min
# In short: (§1)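 Rat and human liver S9 (0.75 and 1.2 mg/ml) with 1 mM NADPH, 0.5 mM UDPGA, 2.5 mM GSH, 0.05 mg/ml PAPS, 3µM substrate, 60 min at 37 °C in Tris/MgCl2 pH 7.4. Mouse microsomes 0.3 mg/mL, 1 mM NADPH, 3µM, 30 min, phosphate pH 7.4. LC-MS/MS, % remaining, triplicate.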
# [5] = Liver S9 metabolic stability assay, human; type: in vitro ADME; conditions: 3 μM, 60 min
# In short: as §1
# [6] = Kinetic solubility measurement; type: physicochemical; conditions: for solubility kinetic at 24 h: 10 mM DMSO stock solutions
# In short: (§2)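 Human and rat liver microsomes (0.3 mg/mL) with 1 mM NADPH and 3µM substrate, 30 minutes at 37 °C in pH 7.4 phosphate/MgCl2, triplicate; LC-MS/MS percentage remaining. LogD: octanol/aqueous buffer (pH 7.4, 2.2, 6.8, 5), 24 h shaking at room temperature. Kinetic solubility: 200 µM, 2% DMSO, 24 h, filtered.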
# [7] = Liver microsome metabolic stability assay, rat; type: in vitro ADME; conditions: Table 1; 3 μM, 30 min
# Method: (§3) Liver Microsome Metabolic Stability Assay: Incubations were performed at 37 °C in a Dubnoff Shaking water bath using 2 mL 96-well incubation plates. Liver microsome protein concentration was 0.3 mg/mL the final concentration of NADPH was 1 mM. Substrate concentrations are 3µM, incubation time is 30 minutes, and all tests are done in triplicate. The incubation was conducted in 200 mM Phosphate buffer containing 2 mM magnesium chloride, pH=7.4 and the total incubation volume was 0.5 mL. Samples were analyzed via LC-MS/MS and reported as percentage remaining after 30minute incubation, which can then be converted to half-life and intrinsic clearance. […]
# [8] = Liver microsome metabolic stability assay, human; type: in vitro ADME; conditions: 3 μM, 30 min
# Method: as §3
# [9] = LogD measurement (octanol-water); type: physicochemical
# In short: as §2
# [10] = Liver microsome metabolic stability assay, mouse; type: in vitro ADME; conditions: Tables 2 and 3; footnote: tested in the mouse liver microsome assay; 3 μM, 30 min
# Method: as §3
# P-gp (MDR1) = target: T1, P-gp (MDR1) (Homo sapiens, UniProt P08183); assay: MDCK/MDR1 permeability and efflux; type: in vitro ADME; conditions: dog
# T1 construct: expressed in transfected cells; host or cells: MDCK (Madin Darby canine kidney) cells
# Source text: (§4) Our approach was to target compounds with efflux ratio (ER) >2.5 in the MDCK cell line transfected with MDR1 (multidrug resistance-1 transfected Madin Darby canine kidney cell line). […] Our goal was to impart structural elements designed to impart Pgp recognition.
# P-glycoprotein (MDR1) = target: T2, P-glycoprotein (MDR1) (Homo sapiens, UniProt P08183); assay: MDCK/MDR1 permeability and efflux; type: in vitro ADME; conditions: dog
# T2 construct: expressed in transfected cells; host or cells: MDCK (Madin Darby canine kidney) cells
# Source text: as §4
# [11] = target: T3, hERG potassium channels (KCNH2, expressed in HEK293 cells) (Homo sapiens, UniProt Q12809); assay: hERG inhibition; type: cell-based; conditions: supplement
# T3 construct: expressed in transfected cells
# [12] = tested on: L. sigmodontis adult worms; conditions: mouse, in vivo
# [13] = tested on: L. sigmodontis adult worms; assay: In vivo efficacy, L. sigmodontis-infected jirds; design: species or system jird (Meriones unguiculatus); conditions: 2 mg/kg QD 5d SC
# [14] = read-out: O. gutturosa EC50 μM (SD), ex vivo adult worm motility reduction, SD in brackets
# [15] = read-out: O. gutturosa EC50 (uM) motility inhibition, supplement, SD in brackets in the PDF table
# [16] = supplement, read-out: measured logD
# T2 sequence (P08183 whole entry): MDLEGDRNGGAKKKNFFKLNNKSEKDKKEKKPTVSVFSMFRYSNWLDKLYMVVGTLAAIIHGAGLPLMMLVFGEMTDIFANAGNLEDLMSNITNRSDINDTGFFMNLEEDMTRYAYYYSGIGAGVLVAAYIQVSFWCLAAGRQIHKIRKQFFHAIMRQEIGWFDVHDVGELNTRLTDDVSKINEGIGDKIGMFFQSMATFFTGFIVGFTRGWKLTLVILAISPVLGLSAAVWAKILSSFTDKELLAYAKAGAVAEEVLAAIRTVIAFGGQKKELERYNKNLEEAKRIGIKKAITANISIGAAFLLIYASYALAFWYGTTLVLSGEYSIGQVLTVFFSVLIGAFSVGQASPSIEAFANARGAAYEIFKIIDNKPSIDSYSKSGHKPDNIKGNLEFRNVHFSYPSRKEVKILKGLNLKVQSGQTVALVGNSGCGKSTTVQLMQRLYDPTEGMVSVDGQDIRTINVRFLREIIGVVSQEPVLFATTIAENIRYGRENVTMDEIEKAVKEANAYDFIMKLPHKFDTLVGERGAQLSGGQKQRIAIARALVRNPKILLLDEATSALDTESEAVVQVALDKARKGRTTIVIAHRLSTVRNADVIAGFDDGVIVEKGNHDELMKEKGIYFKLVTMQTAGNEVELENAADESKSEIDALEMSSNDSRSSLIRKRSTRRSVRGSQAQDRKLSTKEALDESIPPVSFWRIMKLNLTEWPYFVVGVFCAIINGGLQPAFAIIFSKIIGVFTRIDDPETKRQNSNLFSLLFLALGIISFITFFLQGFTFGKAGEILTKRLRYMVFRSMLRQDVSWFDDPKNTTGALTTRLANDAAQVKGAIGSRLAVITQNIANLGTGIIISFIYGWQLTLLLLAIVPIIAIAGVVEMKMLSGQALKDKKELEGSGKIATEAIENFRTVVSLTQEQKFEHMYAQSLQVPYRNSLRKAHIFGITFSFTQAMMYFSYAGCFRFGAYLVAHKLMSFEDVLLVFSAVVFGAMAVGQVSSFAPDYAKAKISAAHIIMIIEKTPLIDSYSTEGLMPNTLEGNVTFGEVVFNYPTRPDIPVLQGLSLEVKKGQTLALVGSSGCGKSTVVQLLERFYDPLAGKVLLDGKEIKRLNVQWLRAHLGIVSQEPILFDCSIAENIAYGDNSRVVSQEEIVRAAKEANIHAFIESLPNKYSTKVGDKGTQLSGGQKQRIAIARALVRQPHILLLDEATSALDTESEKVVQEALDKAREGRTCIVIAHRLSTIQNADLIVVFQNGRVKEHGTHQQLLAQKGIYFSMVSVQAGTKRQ
# T1 sequence (P08183 whole entry): as above
# T3 sequence (Q12809 whole entry): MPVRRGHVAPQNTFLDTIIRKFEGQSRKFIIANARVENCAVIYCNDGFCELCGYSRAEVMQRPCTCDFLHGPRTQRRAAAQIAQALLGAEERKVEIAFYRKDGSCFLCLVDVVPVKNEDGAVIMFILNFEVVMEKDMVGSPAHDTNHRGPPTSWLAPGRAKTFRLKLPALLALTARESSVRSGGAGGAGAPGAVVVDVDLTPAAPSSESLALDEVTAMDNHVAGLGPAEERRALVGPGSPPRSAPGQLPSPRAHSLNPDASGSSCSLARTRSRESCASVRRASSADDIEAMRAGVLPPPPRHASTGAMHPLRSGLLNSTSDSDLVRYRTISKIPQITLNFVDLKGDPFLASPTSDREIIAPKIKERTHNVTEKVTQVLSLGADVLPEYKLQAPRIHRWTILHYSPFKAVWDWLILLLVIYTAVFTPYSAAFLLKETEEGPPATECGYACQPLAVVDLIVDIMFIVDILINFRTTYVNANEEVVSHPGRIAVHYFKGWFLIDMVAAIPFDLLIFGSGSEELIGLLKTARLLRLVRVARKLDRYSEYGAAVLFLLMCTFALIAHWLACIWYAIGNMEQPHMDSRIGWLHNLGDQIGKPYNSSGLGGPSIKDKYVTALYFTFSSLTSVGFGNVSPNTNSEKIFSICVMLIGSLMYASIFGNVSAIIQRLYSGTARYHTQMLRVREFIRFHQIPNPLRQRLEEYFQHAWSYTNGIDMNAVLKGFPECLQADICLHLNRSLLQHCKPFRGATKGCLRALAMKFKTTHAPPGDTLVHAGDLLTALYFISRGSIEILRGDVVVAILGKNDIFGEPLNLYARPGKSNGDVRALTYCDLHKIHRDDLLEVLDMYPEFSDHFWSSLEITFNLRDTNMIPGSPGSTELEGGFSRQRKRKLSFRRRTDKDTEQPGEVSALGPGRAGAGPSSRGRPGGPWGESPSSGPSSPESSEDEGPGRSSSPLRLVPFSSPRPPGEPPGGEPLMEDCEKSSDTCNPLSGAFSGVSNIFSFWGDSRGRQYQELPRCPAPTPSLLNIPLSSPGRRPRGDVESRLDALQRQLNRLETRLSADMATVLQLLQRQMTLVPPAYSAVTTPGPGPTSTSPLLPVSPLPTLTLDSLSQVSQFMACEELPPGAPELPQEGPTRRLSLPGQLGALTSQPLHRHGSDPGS
Compound,EC50 [2] [µM],"EC50 [3, 14] [µM]",solubility kinetic at 24 h [6] [µM],Rat Microsomes [7] [% remaining],Human Microsomes [8],"EC50 [3, 15] [µM]","logD at 24 h [9, 16]","logD at 24 h ([9]; pH 7.4, read-out: logD)",further results
COc1ccc(Nc2nc(-c3ccccn3)cs2)nc1 [Compound 1],0.94,0.27,,,,,,,IC50 (THLE-2 cells): 72.4 µM; reduction of adult L. sigmodontis worms [1]: 68%; AUC(0-inf) (Mouse pharmacokinetics): 1.58 ± 0.27 µM·h; Cmax (Mouse pharmacokinetics): 690 ± 180 nM; Tmax (Mouse pharmacokinetics): 30 ± 0 min; Rat S9 metabolic stability [4]: 51 % remaining; Human S9 metabolic stability [5]: 59 % remaining
COc1ccc(Nc2nc(-c3ccccn3)ns2)nc1 [Compound 2],1.5,1.7,62.7,78,90 % remaining,,,,IC50 (THLE-2 cells): > 300 µM; AUC(0-inf) (Mouse pharmacokinetics): 3.61 ± 0.86 µM·h; Cmax (Mouse pharmacokinetics): 1260 ± 290 nM; Tmax (Mouse pharmacokinetics): 78 ± 30 min
"Cc1cccnc1Nc1nnc(-c2ccc(OC3CCOCC3)cn2)s1 [Compound 4, 3-Methyl-N-{5-[5-(oxan-4-yloxy)pyridin-2-yl]-1,3,4-thiadiazol-2-yl}pyridin-2-amine]",2.8,2.6,0.4,89,100 % remaining,> 12,2.7,,
"Cc1cccnc1Nc1nsc(-c2ccc(OC3CCOCC3)cn2)n1 [Compound 5, N-(3-Methylpyridin-2-yl)-5-(5-((tetrahydro-2h-pyran-4-yl)oxy)pyridin-2-yl)-1,2,4-thiadiazol-3-amine]",,,182,89,77 % remaining,,2.15,,
"Cc1cccnc1Nc1nnc(-c2ccc(OC3CCOCC3)cn2)o1 [Compound 7, (3-Methyl-pyridin-2-yl)-{5-[5-(tetrahydro-pyran-4-yloxy)-pyridin-2-yl]-[1,3,4]oxadiazol-2-yl}-amine]",6.5,0.94,12.8,39,83 % remaining,0.935,1.55,,
CC(C)Oc1cnc(-c2nsc(Nc3ncccc3N(C)C)n2)cc1C(F)(F)F [Compound 34],0.53,0.04,,,98 % remaining,0.036,2.9,2.9,fold less soluble than 47 ([6]; 24 h): 10 fold; Rat Microsomes [10]: 93 % remaining
"Cc1cccnc1Nc1nc(-c2ncc(OC(C)C)cn2)ns1 [Compound 40, 3-(5-Isopropoxypyrimidin-2-yl)-N-(3-methylpyridin-2-yl)-1,2,4-thiadiazol-5-amine]",2.9,2.35,12.3,,96^c % remaining,,2.9,2.9,Rat Microsomes [10]: 90^c % remaining
"CC(C)Oc1ccc(-c2nsc(Nc3ncccc3C(N)=O)n2)nc1 [Compound 59, 2-((3-(5-Isopropoxypyridin-2-yl)-1,2,4-thiadiazol-5-yl)amino)nicotinamide]",3.4,2.6,0.3,,,,1.6,1.6,Papp A→B (P-gp (MDR1)): 0.8 ×10⁻⁶ cm/s; Papp A→B (P-glycoprotein (MDR1)): 0.79 ×10⁻⁶ cm/s; IC50 [11]: > 30 µM
"Flubendazole [FBZ, reference compound]",,,,,,,,,"adult worm burden reduction [12]: -98.8% and -100%; adult worm burden reduction ([13]; jirds infected SC with 40 L3 larvae (Fig 2C)): -100%; reduction of adult worm burden ([13]; patent, naturally infected jirds): -100%"

# From paper PMC9421654, “Discovery of Substituted Di(pyridin-2-yl)-1,2,4-thiadiazol-5-amines as Novel Macrofilaricidal Compounds for the Treatment of Human Filarial Infections” (Journal of Medicinal Chemistry, 2022)
